Reference: patent US20180078576A1, “SULPHATED XYLANS FOR TREATMENT OR PROPHYLAXIS OF RESPIRATORY DISEASES” (Paradigm Biopharmaceuticals Limited, priority 2007, published 2018)
Marks after values point to notes of the source that are not given here.

Assays:
[1] = test system: Guinea-pigs sensitized to ovalbumin; test: Guinea pig model of asthma, airway hyper-reactivity 24 h after OVA challenge; assay type: in vivo; conditions: for Cdyn, % increase from that of the positive control / RL, % decrease from that of the positive control: Dexamethasone 15 mg/kg, glycan compounds 10 mg/kg, intratracheal microspray
Experimental: A guinea pig model of asthma was used. Guinea-pigs (8 per group) were sensitized to ovalbumin by two intraperitoneal injections of ovalbumin (grade V, 20 μg) in aluminium hydroxide gel on Days 1 and 11. On day 20 (24 hours prior to assessing airway hyper-reactivity (AHR)) each animal received a challenge dose of OVA—this took the form of a 1 hour aerosol exposure of OVA (10 μg). The negative control animals received, no sensitization and no challenge. The positive controls were sensitized and challenged but were either given no further treatment or were treated with vehicle (saline). Test compounds (PPS and the sulfated xylan pentasaccharide) and vehicle were administered by intratracheal administration as an aqueous microspray using a Penn Century device. The device used was the FMJ250 high pressure syringe and a 1A-1C microspray delivery tube. The particle size delivery goes up to 32 μm. During the study the volume delivered was 100 ul for all test formulations. The test compounds were administered 30 min before challenge with OVA. The animals underwent surgery 24 hours after challenge to insert a cannula into the trachea, the cannula was connected to the instrumentation which measured pressure and changes in airflow. After surgery the animals were allowed to stabilize for 10 min before baseline readings were taken. Bronchoconstriction was evoked with aerosolized methacholine (10 mg/ml and 30 mg/ml) for 20 seconds. The difference between baseline readings and that obtained after methacholine were used to calculate Cdyn and RL. Thus, measurements of lung function were taken approximately 25 hours after the drug was administered. Both pentosan polysulfate and the sulfated xylan pentasaccharide when administered at 10 mg/kg were effective in reducing the airway hyper-reactivity readings. Their efficacy was approximately equivalent to that usually seen with 7.5 mg/kg of dexamethasone in this model.

[2] = biological target: T1, recombinant human IL-4 (rhIL-4) (Homo sapiens, UniProt P05112); test: BIAcore inhibition of IL-4 binding to immobilized heparin; conditions: BIAcore chip, titration, FIG. 3A
T1 construct: made in house; host or cells: baculovirus expression system
T1 sequence (P05112 25-153): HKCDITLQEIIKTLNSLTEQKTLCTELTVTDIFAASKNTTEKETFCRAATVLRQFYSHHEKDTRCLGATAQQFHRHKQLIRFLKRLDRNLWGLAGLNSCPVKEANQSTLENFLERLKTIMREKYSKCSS
Text: The optical phenomenon of surface plasmon resonance is used to monitor physical interactions between molecules. Passing a solution of a potential protein ligand (e.g. IL-4, IL-5 or eotaxin) over a sensor surface to which a target (e.g. heparin) is coupled monitors the real-time binding of protein ligands to the immobilized target. Detection is achieved by measuring refractive index changes very close to the sensor surface. When the refractive index is altered, the angle at which plasmon resonance occurs changes and this change directly correlates with the amount of protein interacting with the surface. A BIAcore 2000 is conveniently used. […]
Biotinylated heparin is immobilized on the biosensor chip. […] Solutions containing potential protein ligands of interest are injected over the sensor chip surface, and the binding is measured in real time (Fernig, In: Proteoglycan protocols, Ed. R. V. Iozzo, Humana Press, Totowa, N.J., USA, 2001). Baculovirus expressed recombinant human IL-4 (rhIL-4) and baculovirus expressed recombinant human IL-5 (rhIL-5) readily bind to heparin immobilized by this method (see PCT/AU2005/000551). […] Similarly, recombinant human eotaxin (CCL11) expressed in E. coli binds readily to immobilized heparin and binding is specific as there is little eotaxin binding to sensor chips lacking heparin. […]

[3] = test system: male C57Bl/6J mice exposed to cigarette smoke; test: Mouse model of emphysema/COPD, acute cigarette smoke exposure; assay type: in vivo; conditions: PPS inhaled 30 minutes before
Experimental: A mouse model of emphysema was used. Acute and chronic exposure of mice to cigarette smoke lead to lung responses that in part mimic the inflammatory and structural changes observed in COPD. In this model male C57Bl/6J mice are subjected to acute and chronic smoke exposure, with normal room air being the control situation. In the acute study mice were exposed to either room air or to the smoke of five cigarettes (approximately 12 mg of tar and 0.9 mg of nicotine) for 20 minutes. In the chronic study mice were exposed to either room air or to the smoke of three cigarettes/day for 5 days/week for 6 months. The 4 groups of mice were then further divided so that mice within each group also received PPS via an inhaled route.
In the acute exposure groups of mice pentosan polysulfate was given 30 minutes before exposure to cigarette smoke. Assessment of the efficacy of the drug for mice in the acute exposure groups involved assessment of trolox equivalent anti-oxidant capacity of the bronchoalveolar lavage fluid (BALF) at the end of smoke exposure. The BALF was examined for cytokines and chemokines that are associated with an inflammatory response. The levels of these agents were determined at 4 hours after exposure and at 24 hours after cigarette smoke exposure. A range of cytokines and chemokines was measured. […] A differential cell count of the cells in the BALF was also determined.

Elastase = biological target: T2, Elastase (Homo sapiens, UniProt P08246); test: Elastase activity on collagen substrate; assay type: biochemical; conditions: collagen coated wells, 37° C., 30 minutes
T2 sequence (P08246 30-267): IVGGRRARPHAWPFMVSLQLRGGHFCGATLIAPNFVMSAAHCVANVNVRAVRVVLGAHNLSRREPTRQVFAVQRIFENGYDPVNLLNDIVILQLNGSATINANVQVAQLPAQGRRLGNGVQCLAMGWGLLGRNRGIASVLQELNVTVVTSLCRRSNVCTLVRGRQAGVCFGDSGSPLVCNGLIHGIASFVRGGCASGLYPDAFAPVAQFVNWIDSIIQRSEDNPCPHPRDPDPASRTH
Experimental: Elastase activity was also measured using a physiological substrate, collagen. For these experiments collagen was coated onto the wells of a microplate. Tris buffer (50 μl) was added together with 25 μl of either inhibitor (PPS or other sulfated polysaccharides) or buffer. The plate was incubated at 37° C. for 30 minutes, before staining the wells for protein. After drying the wells at room temperature the remaining colour was dissolved by adding 200 μl of lysis solution (10% w/v SDS in DMSO) and the OD measured at […]. Control experiments include collagen without enzyme digestion as 100% values and with enzyme digestion but without inhibitor as 0% values.

Question: Which “Reduction of airway hyper-reactivity readings (in words)” value ([1]; 10 mg/kg intratracheal microspray 30 min before OVA challenge) does the source give for Pentosan polysulfate [PPS] here?
Answer: The value was “effective”.

Question: And the “Cdyn, % increase from that of the positive control” value ([1]; MCh 10 mg/ml)?
Answer: The value was 38% *.

Question: And the “RL, % decrease from that of the positive control” value ([1]; MCh 10 mg/ml)?
Answer: The value was 32%.

Question: And the “Cdyn, % increase from that of the positive control” value ([1]; MCh 30 mg/ml)?
Answer: Its value is 49% **.

Question: And the “RL, % decrease from that of the positive control” value ([1]; MCh 30 mg/ml)?
Answer: The value was 35% **.

Question: And the IC50 [2]?
Answer: Its IC50 is 25 to 80 nM.

Question: And the “Cellular infiltrate into BALF” value [3]?
Answer: The value was “decreased”.

Question: What about the “Numbers of neutrophils in BALF” value [3] of the same substance?
Answer: The value was “significantly attenuated”.

Question: And the “Inhibition of elastase activity on collagen (in words)” value (Elastase)?
Answer: The value was “effective elastase inhibitor”.
